From publication PMC9852173, “[^111In]In-CP04 as a novel cholecystokinin-2 receptor ligand with theranostic potential in patients with progressive or metastatic medullary thyroid cancer: final results of a GRAN-T-MTC Phase I clinical trial” (European Journal of Nuclear Medicine and Molecular Imaging, 2022)

Tests used:
[1] = set-up: species or system human; settings: in vivo
Description: The primary objective of the trial was the evaluation of the safety of the administration of [^111In]In-CP04 at low mass amount of 10 μg CP04 and at high mass amount of 50 μg CP04 radiolabelled with 200±10% MBq of ^111In. Therefore, the definition of the type, frequency, severity, timing, and relation to the studied radiopharmaceutical administration of Adverse Events assessed by CTCAE v4.0 was used as primary endpoint to define the safety and tolerability of [^111In]In-CP04.
Detailed physical examinations with vital sign assessment, 12-lead ECG, and laboratory testing were performed to investigate the safety of intravenous administration of [^111In]In-CP04. The overall safety profile of the tested CCK-2/gastrin receptor ligand as characterized by timing, type, frequency, severity of adverse events (AE), and laboratory abnormalities was based on Common Terminology Criteria for Adverse Events (CTCAE) version 4.0. Since this was a Phase I clinical trial, the project was assumed as having a high-risk potential for the patient, and therefore, special care was taken with the monitoring of the study. In total, eight control visits were carried out over 4 months of the follow-up with physical examination, laboratory testing, and ECG. Additionally, Ct and proCt concentrations were measured after each [^111In]In-CP04 injection at predefined time points (0, 2, 5, 10, 20 min).
(table shift speed 12 cm/min).

[2] = in vivo
Description: The duration of [^111In]In-CP04 administration with the low and high mass amount was 5 min and 30 min, respectively. During the injection of the IMP, a dynamic scan of the kidneys and stomach was performed for 30 min (anterior and posterior acquisition). The imaging protocol included a mandatory whole-body scan (WBS) at 1 h, 4 h, 24 h, and 48 h p.i. (table shift speed 12 cm/min). A quantitative SPECT/CT scan of the abdomen was performed at 24 h p.i. as well as an additional non-quantitative SPECT/CT scan of the area where pathological lesions were detected during WBS, if the scan duration was tolerated by the patient. Gelofusine (B. Braun, Melsungen, Germany) was administered as an infusion of 1 mL/kg body weight over 10 min followed by a 3-h infusion of 0.02 mL/kg/min after the injection of the IMPD. Physiological parameters (heart rate, blood pressure, oxygen saturation) were repeatedly measured during and after the [^111In]In-CP04 infusion as per study protocol.
During the [^111In]In-CP04 administration blood samples for dosimetry and pharmacokinetic purposes were taken at the set time intervals according to the study protocol: biodistribution and dosimetry data were acquired based on serial planar and SPECT/CT images, and blood and urine collection at regular time intervals. Urine samples were collected up to 24 h after the tracer injection to determine the bladder wall absorbed dose. On the WBS planar imaging at 1, 4, 24, and 48 h (including standard activity) and quantitative SPECT/CT imaging at 4 and 24 h, the regions of interest (ROI) were drawn over the kidneys and over the lesions when visible. The counts in the ROIs were quantified to activity by cross-calibration with the activity determined in the corresponding volumes of interest (VOIs) drawn on the quantitative SPECT/CT image at 24 h. Time-activity curves were determined by fitting exponential curves through the uptake data. Time integrated activity coefficients (TIAC) were calculated for ^111In and ^177Lu by integration of the TIACs multiplied with their physical decaty functions. The absorbed dose per unit activity in each organ was determined by multiplication with the ^111In and ^177Lu S-values according to the MIRD formalism. The blood time-activity curve was used to estimate the absorbed dose to the bone marrow. The activity concentration in the bone marrow was considered to be equal to the blood activity concentration. The activity and volumes of the urine samples were used to determine the urinary clearance rate, and with the dynamic bladder model, the TIAC in the bladder and the absorbed dose to the bladder wall were determined. The effect on the kidney absorbed dose after co-administration of the nephroprotective agent Gelofusine was evaluated. […]

[3] = tested on: MTC; test: [18F]FDG PET/CT restaging prior to enrolment; format: in vivo, human; settings: CEA 80 to 2087 ng/mL
Source text: Sixteen patients with histologically proven and advanced MTC were enrolled in the study based on the specific inclusion and exclusion criteria. [^18F]FDG PET/CT, ceCT, or MRI imaging (initiated at Ct concentrations above 150 pg/mL or clinical suspicion of disease at a specific site) was positive in 12 patients; in four, short calcitonin doubling time (CtDT) with negative conventional imaging (CT of the neck/thorax, abdomen; [^18F]FDG PET/CT) was present.
It is well accepted that the molecular imaging modalities outperform conventional imaging (US, CT, and MRI in the present study) in the setting of recurrent disease, in particular PET/CT imaging with [^18F]F-DOPA [19–21]. […] With patient-based detection rate of over 80%, [^111In]In-CP04 slightly outperformed conventional and molecular imaging modalities (detection rate of 75%) in the present study. […] However, the patient population in our study was highly preselected and small, which likely affected the results; moreover, the reported detection rate in the mentioned meta-analysis was likely affected by the relatively low Ct concentrations (above 150 pg/mL in only 73% of patients). […]

[4] = tested on: MTC; settings: meta-analysis; cited from earlier work
Source text: It is well accepted that the molecular imaging modalities outperform conventional imaging (US, CT, and MRI in the present study) in the setting of recurrent disease, in particular PET/CT imaging with [^18F]F-DOPA [19–21].

[5] = in vivo; remark: listed apart in the source
Description: On the WBS planar imaging at 1, 4, 24, and 48 h (including standard activity) and quantitative SPECT/CT imaging at 4 and 24 h, the regions of interest (ROI) were drawn over the kidneys and over the lesions when visible. The counts in the ROIs were quantified to activity by cross-calibration with the activity determined in the corresponding volumes of interest (VOIs) drawn on the quantitative SPECT/CT image at 24 h. Time-activity curves were determined by fitting exponential curves through the uptake data. Time integrated activity coefficients (TIAC) were calculated for ^111In and ^177Lu by integration of the TIACs multiplied with their physical decaty functions. The absorbed dose per unit activity in each organ was determined by multiplication with the ^111In and ^177Lu S-values according to the MIRD formalism. […] The effect on the kidney absorbed dose after co-administration of the nephroprotective agent Gelofusine was evaluated. All dosimetry calculations were performed with the Hermes-OLINDA v2.1 hybrid 2D dosimetry software.

CSCC[C@H](NC(=O)[C@H](Cc1c[nH]c2ccccc12)NC(=O)CNC(=O)[C@H](Cc1ccc(O)cc1)NC(=O)[C@H](C)NC(=O)[C@@H](CCC(=O)O)NC(=O)[C@@H](CCC(=O)O)NC(=O)[C@@H](CCC(=O)O)NC(=O)[C@@H](CCC(=O)O)NC(=O)[C@@H](CCC(=O)O)NC(=O)[C@@H](CCC(=O)O)NC(=O)CN1CCN(CC(=O)O)CCN(CC(=O)O)CCN(CC(=O)O)CC1)C(=O)N[C@@H](CC(=O)O)C(=O)N[C@@H](Cc1ccccc1)C(N)=O [[^111In]In-CP04, [^111In]In-DOTA-(DGlu)6-Ala-Tyr-Gly-Trp-Met-Asp-Phe-NH2, metal not drawn]
ECG recordings [1]: No significant changes
laboratory test results during control visits [1]: did not change significantly
performance status (Karnofsky index) [1]: did not change
transient tachycardia, duration [1]: less than 5 minutes
transient tachycardia, heart rate [1]: up to 128 beats/min
kidney absorbed dose [2]: 0.044±0.019 mSv/MBq
organs with highest dose [2]: highest dose to urinary bladder, followed by the kidneys and stomach wall
radiation dose for 200 MBq [2]: about 7 mSv
retention of activity in intestines, stomach and kidneys [2]: < 1 % of IA

OC[C@H]1OC(O)[C@H]([18F])[C@@H](O)[C@@H]1O (stereo partly drawn) [[^18F]FDG]
PET/CT positivity in the present series [3]: only positive in three patients

N[C@@H](Cc1cc(O)c(O)cc1[18F])C(=O)O [[^18F]F-DOPA]
pooled patient-based detection rate [4]: 66%

CSCC[C@H](NC(=O)[C@H](Cc1c[nH]c2ccccc12)NC(=O)CNC(=O)[C@H](Cc1ccc(O)cc1)NC(=O)[C@H](C)NC(=O)[C@@H](CCC(=O)O)NC(=O)[C@@H](CCC(=O)O)NC(=O)[C@@H](CCC(=O)O)NC(=O)[C@@H](CCC(=O)O)NC(=O)[C@@H](CCC(=O)O)NC(=O)[C@@H](CCC(=O)O)NC(=O)CN1CCN(CC(=O)O)CCN(CC(=O)O)CCN(CC(=O)O)CC1)C(=O)N[C@@H](CC(=O)O)C(=O)N[C@@H](Cc1ccccc1)C(N)=O [CP04, DOTA-(DGlu)6-Ala-Tyr-Gly-Trp-Met-Asp-Phe-NH2]
projected 177Lu absorbed dose to the kidneys [5]: 0.12 Gy/GBq
